The numbers were not newly measured in US20140294972A1, “Oral Suspension” (NOVA BIO-PHARMA TECHNOLOGIES LIMITED, priority 2011, published 2014), which cites them from elsewhere.

The conditions of the data set: neutral pH.

In the case of `Sc1ncnc2nc[nH]c12` [6-MP, 3,7-dihydropurine-6-thione], the water solubility entry is on record as “about 6.85 mg/mL”.
